# “Also recorded” adds a separate entry of the source.
# Key:
# [1] = tested on: genetically diabetic db/db BL/6J mice; test: Screening in db/db BL/6J mice, plasma glucose reduction; format: in vivo; conditions: 10 days
# Protocol: In an embodiment, the method includes selecting 6-8 weeks old male db/db mice based on blood glucose levels determined after withholding feed for four hours. For example, the method can employ animals with plasma glucose levels in a suitable range, such as 300-500 mg/dl. The selected mice can be orally dosed with test (lead) compound, for example, in 0.5% carboxy methyl cellulose (CMC) vehicle at a suitable frequency and for a suitable time, such as twice daily for 10 consecutive days. This embodiment of the method can include obtaining blood on, for example, day 5 and day 10, after withholding feed for four hours, and determining plasma glucose levels. These levels can be determined using enzymatic methods (e.g., Diasys kit, Germany) in an autoanalyser. Lead compounds are considered to be in vivo actives if they produce statistically significant fall in plasma glucose on day 10 compared to mice treated with 0.5% CMC vehicle. Rosiglitazone can be used as a standard at 5 mg per kg (mpk) bid for comparison with test compounds.
# The protocol was designed as in references. • 1.
# The screening of compounds was based on their ability to reduce the plasma glucose levels in genetically diabetic db/db BL/6J mice.
# Male db/db mice (obtained from the Animal House of Nicholas Piramal Research Centre, Goregaon, Mumbai, India) were used for this study (body weight in the range of 30-40 g and age is 6-8 weeks) and were kept eight per cage in individually ventilated cages at controlled temperature (22±1° C.) and humidity (45±5%). Food and water were provided ad libitum during their laboratory stay, except for four hours fasting prior to blood sample collection. 12 hours light and dark cycle was followed during the whole study period.
# After 4 hours fasting blood samples were collected from mice. Mice showing plasma glucose levels between 300 to 500 mg/dl were divided in groups (8-10 per group) such that the mean plasma glucose levels and variation within the group, for each group, is nearly same. After grouping, mice in respective groups received treatment with 0.5% CMC vehicle, standard compound or test compounds for 10 days. Rosiglitazone was used as a standard.
# After 4 hours fasting, mice were anaesthetized using isoflurane (inhalation anesthetic), and blood samples were collected through the retro orbital plexus. Collected blood samples were centrifuged at 7000 rpm for 10 minutes at 4° C.; Separated plasma was used for estimation of plasma glucose using diagnostic kits (Diasys, Germany). Plasma glucose levels of treated groups were normalized with control group using the following formula, which accounted for the changes in control group.
# [2] = tested on: dexamethasone treated insulin resistant 3T3-L1 adipocytes; test: Insulin resistance assay (IR assay), 14C-2-deoxyglucose uptake; format: cell-based, mouse; conditions: for % of Rosiglitazone (comparison with Rosiglitazone): test compound 10 μM/mL versus Rosiglitazone 0.1 μM; for Fold vehicle (fold activity over vehicle): test compound 10 μM/mL, glucose uptake with 200 nM insulin, vehicle = 1.0
# Description: A suitable insulin resistance assay includes screening of compounds which act as insulin-sensitizers using chronically dexamethasone treated 3T3-L1 adipocytes as an in vitro model. This is a known model for studying insulin signaling and insulin resistance. Chronically dexamethasone treated 3T3-L1 adipocytes serve as a valid in vitro model of insulin resistance resembling diabetes patients.
# In an embodiment, the method according to the present invention includes screening compounds identified as active in the phenotype-based assay against dexamethasone treated insulin resistant adipocytes. For example, the method can include applying actives from the insulin sensitivity assay at a concentration of 1-10 μM to the insulin resistant adipocytes for 1-4 days. The adipocytes were previously prepared for the assay by long term exposure to dexamethasone, for example, at 100 nM for about 24-48 hours.
# The method can also include determining whether the compounds enhance glucose uptake in the insulin resistant adipocytes by more than 50% above that enhanced by insulin. The method can then include selecting compounds as active, if they caused 1.5 fold or more increase in glucose uptake compared to insulin treated adipocytes. Glucose uptake can be measured by any of a variety of known methods, such as measuring uptake of ^14C-labeled 2-deoxyglucose, a non metabolisable analogue of D-Glucose.
# The assay was designed as in the reference, British Journal of Pharmacology, 130, 351-58, 2000, which is incorporated herein by reference for disclosure of the assay.
# The solution of test compound (10 μM/mL) was prepared in DMSO.
# Rosiglitazone (0.1 μM in DMSO) was used as standard.
# Differentiation into adipocytes was induced by known methods as described below. (J. Biol. Chem., 260, 2646-2652, 1985, which is incorporated herein by reference for disclosure of the induction).
# Culture medium containing […] 1-methyl-3-isobutylxanthine (IBMX), 0.25 μM dexamethasone, 5 μg/ml insulin (bovine/human), 10 mM HEPES buffer and fetal bovine serum (FBS) 10% by volume in Dulbecco's modified Eagle's medium (DMEM) was used for differentiation.
# 3T3 L1 fibroblasts were seeded in 24-well or 6-well plates at a density of 0.5-2×10^4 cells/well and were allowed to reach maximal confluency.
# The confluent fibroblasts were exposed to culture medium for 2 days. After this period, fresh culture medium (DMEM) containing only insulin was used, 10% FBS was added and cultured for 4 days with change of medium every 2 days. After 7 days the cultures received DMEM containing 10% FBS with no exposure to insulin. By the end of 8-10 days, more than 95% of the cells have become differentiated into adipocytes.
# The mature adipocytes were exposed to dexamethasone, 100 nM added in ethanol, in culture medium and incubated for 2 days. On the third day, solution of test compound was added along with 100 nM dexamethasone containing medium for 4 days with a change in medium after every 2 days. Vehicle control contained 1% v/v of DMSO. Rosiglitazone was used as a standard and was added at a concentration of 0.1 μM in DMSO, along with 100 nM dexamethasone containing medium for 4 days with a change in medium after every 2 days. After a total period of 6 days, the cells were processed for glucose uptake as follows.
# The insulin resistant adipocytes were exposed to serum-free DMEM containing 0.1% bovine serum albumin for 3-4 hours at 37° C. in CO2 atmosphere. The test compound was also present during this period. After 3-4 hours, the medium was aspirated and replaced with Kreb's Ringer phosphate (KRP) buffer at pH 7.4 and with human/porcine insulin, 200 nM. The cells were incubated for 30 minutes at 37° C. At the end of 30 minutes, 0.05 or 0.1 μCi of ^14C-2-deoxyglucose was added to each well of either 24-well or 6-well plates respectively and was incubated for exactly 5 minutes. After exactly 5 minutes, the plates were transferred to ice trays and medium was rapidly aspirated. […]
# [3] = tested on: diet induced obese (DIO) mice; test: Evaluation of antiobesity, chronic study in diet induced obese mice; format: in vivo; conditions: 10 days, vs vehicle
# Description: In an embodiment, the method includes selecting 17-18 week old male diet induced obese (DIO) mice, which were maintained on a high fat diet (D12451, Research Diets Inc, New Brunswick, N.J. 08901, USA, 45% kcal from fat), based on body weight. The selected mice can be dosed intraperitoneally with test (lead) compound, for example, in 0.5% CMC vehicle at a suitable frequency and for a suitable time, such as once daily for 10 consecutive days. This embodiment of the method can include recording body weight and food weight daily. Lead compounds are considered to be in vivo active if they produce statistically significant decrease in cumulative food intake for up to 1 day and a statistically significant decrease in cumulative body weight gain on day 10 as compared to mice treated with the 0.5% CMC vehicle. Sibutramine can be used as a standard at 3 mpk for comparison.
# The assay was designed as in the reference, British Journal of Pharmacology, 132, 1898-1904, 2001, the disclosure of which is incorporated by reference for the teaching of the assay.
# Male C57BI6/J mice (3-4 weeks of age) were housed in groups of 10 animals per cage in the animal facility. High fat diet (D12451 Research Diets Inc., New Brunswick, N.J. 08901, USA, 45% kcal from fat) and water was provided ad libitum for 14 weeks. After this period, the animals were housed individually in cages. The animals were weighed and separated into groups with similar body weight. They were acclimatised to the experimental procedures for 2 days. Animals were dosed intraperitoneally with test compound (200 mpk) or the standard (3 mpk) in 10 mL/kg of 0.5% CMC vehicle between 10:00 am-12:00 noon. After drug administration the animals were presented with a pre-weighed amount of food in the food cup. Weight of feed remaining in the cup and body weight were recorded daily just prior to dosing. The change in weight and cumulative food intake were computed.
# db/db mice = test: Evaluation of lipid levels (dyslipidemia) in db/db mice; format: in vivo; conditions: Rosiglitazone 5 mpk oral bid, 15 days
# Protocol: Body weight was measured daily. On day 15, the animals were deprived of food for 4 hours after the last dose administration. Blood was collected at the end of the 4-hour period using heparinised capillaries by a retro-orbital puncture. Plasma samples were analyzed for, triglyceride and cholesterol, using the autoanalyser.
# The assay was designed as in the reference, Metabolism, 49 (1), 22-31, 2000, the disclosure of which is incorporated by reference for the teaching of the assay.
# Seven groups of male db/db mice (8 animals per group) were used. […] Body weight was measured daily. On day 15, the animals were deprived of food for 4 hours after the last dose administration. Blood was collected at the end of the 4-hour period using heparinised capillaries by a retro-orbital puncture. Plasma samples were analyzed for glucose, triglyceride, cholesterol, using the autoanalyser.
smiles,measurement,setting,value
"COC(=O)C(Cc1ccc(OCCN(C)C(=O)OC(C)(C)C)cc1)(OC)C(=O)OC [Compound 1, 2-{4-[2-(tert-Butoxycarbonyl-methyl-amino)-ethoxy]-benzyl}-2-methoxy-malonic acid dimethyl ether]",Normalization with control (plasma glucose reduction),"[1]; 100 mpk bid, oral, 4 h fasted",42.93 ± 4.95
same,% of Rosiglitazone (comparison with Rosiglitazone),[2],72.5 ± 2.6%
same,Fold vehicle (fold activity over vehicle),[2],2.2 ± 0.18
"CC(=O)N1CCN(c2ccc(Oc3ncc(NS(=O)(=O)c4ccc(Cl)cc4Cl)cc3Cl)cc2)CC1 [Compound 6, N-{6-[4-(4-Acetyl-piperazin-1-yl)-phenoxy]-5-chloro-pyridin-3-yl}-2,4-dichloro benzenesulfonamide]",cumulative food intake,"[3]; 200 mpk intraperitoneally, FIG. 4, 200 mg/kg",effective in reducing cumulative food intake; also recorded: significantly inhibited food intake
same,cumulative body weight gain,"[3]; 200 mpk intraperitoneally, FIG. 5, 200 mg/kg",effective in reducing cumulative body weight gain; also recorded: inhibited body weight gain on all days
same,Normalization with control (plasma glucose reduction),"[1]; 100 mpk bid, oral, 4 h fasted",46.07 ± 4.55
same,% of Rosiglitazone (comparison with Rosiglitazone),[2],61.4 ± 3.15%
same,Fold vehicle (fold activity over vehicle),[2],2.10 ± 0.05
CN(CCOc1ccc(CC2SC(=O)NC2=O)cc1)c1ccccn1 (stereo not drawn) [Rosiglitazone],decrease in plasma triglyceride levels,db/db mice,40%
same,reduction in cholesterol levels,db/db mice,27%
"CC(C)CC(N(C)C)C1(c2ccc(Cl)cc2)CCC1 (stereo not drawn) [Sibutramine, reference compound]",cumulative food intake,"[3]; standard 3 mpk intraperitoneally, FIG. 4",significantly inhibited food intake
same,cumulative body weight gain,"[3]; standard 3 mpk intraperitoneally, FIG. 5",inhibited body weight gain on all days
"CC(C)(COC(=O)COc1ccc(C(=O)CN2Cc3cc(C(N)=S)ccc3C2=O)cc1)NS(=O)(=O)c1cccnc1 [Compound 3, {4-[2-(1-Oxo-5-thiocarbamoyl-1,3-dihydro-isoindol-2-yl)-acetyl]-phenoxy}-aceticacid-2-methyl-2-(pyridine-3-sulfonylamino)-propyl ester]",Normalization with control (plasma glucose reduction),[1]; 50 mpk od,Inactive
same,% of Rosiglitazone (comparison with Rosiglitazone),[2],31.6 ± 6.2%
same,Fold vehicle (fold activity over vehicle),[2],1.48 ± 0.09
CC(=O)N1CCN(c2ccc(Oc3ncc(NC(=O)CCC(=O)O)cc3Cl)cc2)CC1 [Compound 7],Normalization with control (plasma glucose reduction),"[1]; 100 mpk bid, oral, 4 h fasted",Inactive
same,% of Rosiglitazone (comparison with Rosiglitazone),[2],27.5 ± 3.0%
same,Fold vehicle (fold activity over vehicle),[2],1.49 ± 0.05
"CCOC(=O)CCN1Cc2cc(NCCN(C)c3nc4ccccc4o3)ccc2C1=O [Compound 4, 3-{5-[2-(Benzooxazol-2-yl-methyl-amino)-ethylamino]-1-oxo-1,3-dihydro-isoindol-2-yl}propionic acid ethyl ester]",Normalization with control (plasma glucose reduction),[1]; 50 mpk bid,24.99 ± 17.92
same,% of Rosiglitazone (comparison with Rosiglitazone),[2],76.8 ± 12.4%
same,Fold vehicle (fold activity over vehicle),[2],1.88 ± 0.14
"COc1ccc(S(=O)(=O)Nc2cnc(Oc3cnc4ccccc4c3)c(Cl)c2)cc1 [Compound 8, N-[5-Chloro-6-(quinolin-3-yloxy)-pyridine-3-yl]-4-methoxy-benzene sulfonamide]",Normalization with control (plasma glucose reduction),"[1]; 100 mpk bid, oral, 4 h fasted",41.90 ± 3.84
same,% of Rosiglitazone (comparison with Rosiglitazone),[2],66.4 ± 5.2%
same,Fold vehicle (fold activity over vehicle),[2],2.19 ± 0.09
"COC(Cc1ccc(OCCN(C)C(=O)OC(C)(C)C)cc1)C(=O)O (stereo not drawn) [Compound 2, 3-{4-[2-(tert-Butoxycarbonyl-methyl-amino)-ethoxy]-phenyl}-2-methoxy-propionic acid]",Normalization with control (plasma glucose reduction),"[1]; 100 mpk bid, oral, 4 h fasted",45.14 ± 4.92
same,% of Rosiglitazone (comparison with Rosiglitazone),[2],105 ± 3.6%
same,Fold vehicle (fold activity over vehicle),[2],2.62 ± 0.05

# Reference: patent US20090318465A1, “METHOD FOR IDENTIFYING COMPOUNDS THAT ACT AS INSULIN-SENSITIZERS” (priority 2006, published 2009)
